The text below walks through data of ChEMBL document CHEMBL1201862, “PubChem BioAssay data set” (2004).

Some test systems named below: COLO 205; EKVX; NCI-H460; OVCAR-3; HCT-15; SNB-19; OVCAR-4; SW-620; SF-295; UACC-62; IGROV-1; NCI-H23; K562; OVCAR-5; SK-MEL-28; SN12C; UO-31; CCRF-CEM; RPMI-8226; OVCAR-8.
Holding throughout (assay): NCI-60 cell line screen, 48 h

Where a name gives a salt, the structure may show the parent alone.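 Five compound concentrations were applied to cells in 96-well plates for 48 hours; endpoints were derived by simple linear interpolation of the resulting dose-response curve. At the GI50, growth is halved.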 Activity calls are given as the source filed them. Rule as the data show it: active = GI50 up to about 1.1 µM and inactive = higher. Where only a bound is given, the exact number is not on record here.

As to `CNCCC=C1c2ccccc2CCc2ccccc21` [NORTRIPTYLINE HYDROCHLORIDE], the GI50 was 7.62 µM (inactive) in the experiment on COLO 205; 15.2 µM (inactive) with EKVX; 14.8 µM (inactive) in the experiment on NCI-H460; 11.4 µM (inactive) in the experiment on OVCAR-3; 17.1 µM with HCT-15; 16.6 µM (inactive) in the experiment with SNB-19. Further, the GI50 in the experiment on OVCAR-4 was 14 µM (inactive); with SW-620, 17.7 µM (inactive); in the experiment with SF-295, 14.6 µM (inactive); in the experiment with UACC-62, 14.8 µM (inactive); with IGROV-1, 16.7 µM (inactive); in the experiment with NCI-H23 it was 15.7 µM (inactive). Also, the GI50 in the experiment on K562 is 11.4 µM (inactive); with OVCAR-5, 15.3 µM (inactive); in the experiment on SK-MEL-28, 13.5 µM (inactive); in the experiment with SN12C it was 15.4 µM (inactive); with UO-31, 6.14 µM (inactive); in the experiment with CCRF-CEM, 12.5 µM (inactive). Besides, the GI50 was 12.6 µM (inactive) in the experiment with RPMI-8226 and 17 µM (inactive) with OVCAR-8.

For `CCCc1c(-c2ccccc2)[nH]c2ccccc2c1=O`, the GI50 is > 100 µM (inactive) in the experiment on COLO 205; 37.6 µM (inactive) with EKVX; 29.9 µM (inactive) in the experiment with NCI-H460; 31.5 µM (inactive) in the experiment on OVCAR-3; 27.4 µM in the experiment on HCT-15; 65.2 µM (inactive) with SNB-19. The GI50 in the experiment on OVCAR-4 was > 100 µM (inactive); with SW-620, > 100 µM (inactive); with SF-295, > 100 µM (inactive); with UACC-62, 40.5 µM (inactive); with IGROV-1 it was > 100 µM (inactive); in the experiment with NCI-H23 it was > 100 µM (inactive). The GI50 is 20.8 µM (inactive) in the experiment on K562; 45 µM (inactive) in the experiment on OVCAR-5; 33.7 µM (inactive) in the experiment with SK-MEL-28; 89.1 µM (inactive) in the experiment with SN12C; 19.2 µM (inactive) in the experiment with UO-31; 41.3 µM (inactive) with CCRF-CEM. For the same compound, the GI50 in the experiment on RPMI-8226 is 54.6 µM (inactive).

Regarding `C[C@]12CC[C@H]3[C@@H](CC=C4C[C@@H](O)CC[C@@]43C)[C@@H]1C/C(=C\c1ccc([N+](=O)[O-])cc1)[C@@H]2O`, the GI50 is 15.1 µM (inactive) with COLO 205; 10.6 µM (inactive) with EKVX; 16.1 µM (inactive) in the experiment on NCI-H460; 16.3 µM (inactive) in the experiment with OVCAR-3; 10.9 µM in the experiment on HCT-15; 16.9 µM (inactive) in the experiment on SNB-19. The GI50 with OVCAR-4 is < 0.01 µM (active); in the experiment on SW-620, 26.7 µM (inactive); in the experiment on SF-295 it was 16.8 µM (inactive); in the experiment on UACC-62 it was 10.6 µM (inactive); in the experiment with IGROV-1, 26 µM (inactive); in the experiment on NCI-H23, 9.98 µM (inactive). The GI50 with K562 was 5.68 µM (inactive); in the experiment with OVCAR-5 it was 25.2 µM (inactive); with SK-MEL-28, 19.3 µM (inactive); in the experiment on SN12C, 10.6 µM (inactive); with UO-31, 8.93 µM (inactive); with CCRF-CEM it was 5.14 µM (inactive). The GI50 is 7.48 µM (inactive) with RPMI-8226 and 10.9 µM (inactive) in the experiment with OVCAR-8.

As to `c1ccc(Nc2nnc(-c3nsc4ccccc34)o2)cc1`, the GI50 in the experiment with COLO 205 is > 100 µM (inactive); with EKVX, 51.3 µM (inactive); in the experiment with NCI-H460, 62.1 µM (inactive); with OVCAR-3, 14 µM (inactive); in the experiment on HCT-15, more than 100 µM; in the experiment on SNB-19, 37.8 µM (inactive). The GI50 in the experiment with OVCAR-4 was 41 µM (inactive); in the experiment on SW-620, > 100 µM (inactive); in the experiment with UACC-62 it was > 100 µM (inactive); in the experiment with IGROV-1, > 100 µM (inactive); in the experiment on NCI-H23 it was 91.4 µM (inactive); with K562 it was 59.6 µM (inactive). Besides, the GI50 is > 100 µM (inactive) in the experiment with OVCAR-5; > 100 µM (inactive) in the experiment on SK-MEL-28; 71.1 µM (inactive) in the experiment with SN12C; > 100 µM (inactive) in the experiment with UO-31; 71.1 µM (inactive) in the experiment on CCRF-CEM; > 100 µM (inactive) with RPMI-8226. Also, the GI50 with OVCAR-8 was 48.4 µM (inactive).

Consider `CC(C)(CCCCC(C)(C)C1NC(=O)N1)C1NC(=O)N1`, for which the GI50 with COLO 205 was > 10 µM (inactive); in the experiment with EKVX it was > 10 µM (inactive); in the experiment with NCI-H460, > 10 µM (inactive); with HCT-15 it was more than 10 µM; with SNB-19 it was > 10 µM (inactive); with OVCAR-4, > 10 µM (inactive). Moreover, the GI50 in the experiment with SW-620, in the experiment on SF-295, in the experiment on UACC-62, in the experiment on IGROV-1, in the experiment on NCI-H23 and in the experiment with K562 was > 10 µM (inactive) in each case. Also, the GI50 is > 10 µM (inactive) in the experiment on OVCAR-5; > 10 µM (inactive) with SK-MEL-28; > 10 µM (inactive) with SN12C; 5.05 µM (inactive) in the experiment with UO-31; > 10 µM (inactive) in the experiment with CCRF-CEM; > 10 µM (inactive) in the experiment on RPMI-8226. For the same compound, the GI50 in the experiment with OVCAR-8 is > 10 µM (inactive).

As for `CSCSCC(CO)NC(=O)/C(C)=C\c1c(C)[nH]c(=O)[nH]c1=O` (configuration not stated), the GI50 in the experiment with COLO 205 was > 250 µM (inactive); in the experiment on EKVX it was > 250 µM (inactive); in the experiment with NCI-H460, > 250 µM (inactive); in the experiment with OVCAR-3, > 250 µM (inactive); in the experiment on HCT-15, 225 µM; in the experiment with SNB-19, 48.3 µM (inactive). The GI50 is > 250 µM (inactive) with OVCAR-4; 237 µM (inactive) with SW-620; > 250 µM (inactive) in the experiment with SF-295; > 250 µM (inactive) with UACC-62; > 250 µM (inactive) in the experiment with IGROV-1; > 250 µM (inactive) in the experiment on NCI-H23. In addition, the GI50 in the experiment on K562 was > 250 µM (inactive); in the experiment on OVCAR-5, 207 µM (inactive); in the experiment on SK-MEL-28, > 250 µM (inactive); with SN12C it was > 250 µM (inactive); in the experiment with UO-31, > 250 µM (inactive); with CCRF-CEM it was > 250 µM (inactive). The GI50 with RPMI-8226 and in the experiment on OVCAR-8 was > 250 µM (inactive) each time.

As for `CCOC(=O)C1=C(c2ccccc2)N(C(C)=O)Cc2ccccc21`, the GI50 in the experiment on COLO 205 is 15.9 µM (inactive); with EKVX it was 29.6 µM (inactive); with NCI-H460, 14.3 µM (inactive); with OVCAR-3, 18.6 µM (inactive); in the experiment on HCT-15, 21.4 µM; in the experiment on SNB-19, 44.6 µM (inactive). The GI50 in the experiment on OVCAR-4 is 16.7 µM (inactive); with SW-620 it was 34.8 µM (inactive); in the experiment on SF-295 it was 13.9 µM (inactive); with UACC-62 it was 12.2 µM (inactive); with IGROV-1, 23.6 µM (inactive); in the experiment with NCI-H23, 12.6 µM (inactive). In addition, the GI50 is 14.5 µM (inactive) with K562; 21.7 µM (inactive) in the experiment with OVCAR-5; 16.8 µM (inactive) with SK-MEL-28; 21.9 µM (inactive) in the experiment on SN12C; 18.1 µM (inactive) in the experiment with UO-31; 16.4 µM (inactive) in the experiment with CCRF-CEM. For the same compound, the GI50 in the experiment with RPMI-8226 is 13.5 µM (inactive); in the experiment on OVCAR-8 it was 21.3 µM (inactive).
